In US20240190828A1, “Small Molecule Inhibitors of PBRM1-BD2” (The Medical College of Wisconsin, Inc., priority 2021, published 2024):
“And” between values parts separate entries of the source, which are not always exact repeats. Equal entries are not always repeated. Where two headings read alike, the source gives them in different places.

Assays:
BRD4-BD1 = BRD4-BD1 (Homo sapiens (Human), UniProt O60885); test: DSF selectivity profiling; type: binding
Method: (§1) Differential Scanning Fluorimetry (DSF). Bromodomain DSF Tm assays were performed using an Mx3005P (Stratagene) PCR detection system and low profile 96-well PCR plates (UltraFlux, Flat Top, SSI 3400-00S). […] The temperature was raised by 1° C./min from 25-95° C., and fluorescence readings were taken at each interval. Melting curves were analyzed using our online interactive fitting tool for thermofluor experiments (https://dsf-analysis.herokuapp.com/DSF-analysis) and plotted using GraphPad Prism.

BRD7 = BRD7 (Homo sapiens (Human), UniProt Q9NPI1); test: DSF selectivity profiling; type: binding
BRD7, sequence (Q9NPI1 131-235): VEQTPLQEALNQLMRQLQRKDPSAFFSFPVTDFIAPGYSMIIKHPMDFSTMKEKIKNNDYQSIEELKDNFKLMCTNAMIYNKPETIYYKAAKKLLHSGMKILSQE
Method: as §1

BRD2-BD2 = BRD2-BD2 (Homo sapiens (Human), UniProt P25440); test: DSF selectivity profiling; type: binding
BRD2-BD2, sequence (P25440 344-453): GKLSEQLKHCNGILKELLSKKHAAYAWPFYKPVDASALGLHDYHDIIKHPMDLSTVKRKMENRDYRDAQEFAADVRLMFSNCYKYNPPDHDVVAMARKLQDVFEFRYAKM
Method: as §1

BRD4-BD2 = BRD4-BD2 (Homo sapiens (Human), UniProt O60885); test: DSF selectivity profiling; type: binding
Method: as §1

ASH1L = ASH1L (Homo sapiens (Human), UniProt Q9NR48); test: DSF selectivity profiling; type: binding
Method: as §1

BRD3-BD1 = BRD3-BD1 (Homo sapiens (Human), UniProt Q15059); test: DSF selectivity profiling; type: binding
BRD3-BD1, sequence (Q15059 34-140): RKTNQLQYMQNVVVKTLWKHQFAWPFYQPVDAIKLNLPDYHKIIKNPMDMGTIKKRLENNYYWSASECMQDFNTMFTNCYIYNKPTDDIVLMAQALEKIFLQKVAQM
Method: as §1

p300 = p300 (Homo sapiens (Human), UniProt Q09472); test: DSF selectivity profiling; type: binding
p300, sequence (Q09472 1049-1156): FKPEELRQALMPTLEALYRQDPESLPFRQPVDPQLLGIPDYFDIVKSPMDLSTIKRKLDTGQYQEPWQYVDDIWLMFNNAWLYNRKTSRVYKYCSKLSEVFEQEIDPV
Method: as §1

BRD3-BD2 = BRD3-BD2 (Homo sapiens (Human), UniProt Q15059); test: DSF selectivity profiling; type: binding
BRD3-BD2, sequence (Q15059 306-415): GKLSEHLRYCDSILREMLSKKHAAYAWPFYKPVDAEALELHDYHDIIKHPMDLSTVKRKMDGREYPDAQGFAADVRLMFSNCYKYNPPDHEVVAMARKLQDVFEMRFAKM
Method: as §1

PCAF = PCAF (Homo sapiens (Human), UniProt Q92831); test: DSF selectivity profiling; type: binding
PCAF, sequence (Q92831 723-827): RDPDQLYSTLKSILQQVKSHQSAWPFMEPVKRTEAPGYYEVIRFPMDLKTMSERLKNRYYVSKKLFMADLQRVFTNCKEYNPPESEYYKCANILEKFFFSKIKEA
Method: as §1

CECR2 = CECR2 (Homo sapiens (Human), UniProt Q9BXF3); test: DSF selectivity profiling; type: binding
CECR2, sequence (Q9BXF3 434-538): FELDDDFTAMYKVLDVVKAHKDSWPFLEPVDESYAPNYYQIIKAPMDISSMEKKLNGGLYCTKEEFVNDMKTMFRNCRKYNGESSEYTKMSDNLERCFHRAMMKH
Method: as §1

BRDT-BD1 = BRDT-BD1 (Homo sapiens (Human), UniProt Q58F21); test: DSF selectivity profiling; type: binding
Method: as §1

SMARCA2 = SMARCA2 (Homo sapiens (Human), UniProt P51531); test: DSF selectivity profiling; type: binding
SMARCA2, sequence (P51531 1378-1506): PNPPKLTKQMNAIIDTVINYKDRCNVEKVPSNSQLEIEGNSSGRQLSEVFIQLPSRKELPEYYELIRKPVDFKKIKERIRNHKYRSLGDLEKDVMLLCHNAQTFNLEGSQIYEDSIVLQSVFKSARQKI
Method: as §1

TRIM33A = TRIM33A (Homo sapiens (Human), UniProt Q9UPN9); test: DSF selectivity profiling; type: binding
TRIM33A, sequence (Q9UPN9 957-1080): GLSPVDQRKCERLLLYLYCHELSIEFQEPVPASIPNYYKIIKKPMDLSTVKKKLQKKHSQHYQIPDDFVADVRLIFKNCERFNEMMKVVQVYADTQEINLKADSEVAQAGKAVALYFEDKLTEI
Method: as §1

CREBBP = CREBBP (Homo sapiens (Human), UniProt Q92793); test: DSF selectivity profiling; type: binding
CREBBP, sequence (Q92793 1085-1192): as the sequence (Q09472 1049-1156) above, with S47N, I73V, Y93F, S98A counted along it
Method: as §1

PBRM1-BD2 [1] = biological target: T1, PBRM1-BD2 (Homo sapiens (Human), UniProt Q86U86); test: biochemical; type: binding; conditions: read-out: Kd
T1 sequence (Q86U86 177-287): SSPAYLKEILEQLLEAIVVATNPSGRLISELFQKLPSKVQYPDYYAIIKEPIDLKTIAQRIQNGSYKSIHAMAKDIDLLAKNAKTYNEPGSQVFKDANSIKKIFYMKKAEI
Method: Protein-detected NMR-based fragment screening has the advantage of providing information about both binding affinity and the amino acid residues involved in binding.
NMR spectroscopy. Automated NMR data collection was performed on ^15N-labeled PBRM1-BD2 (50 μM) by using ^1H,^15N SOFAST-HMQC experiments. […] The total time for screening 85 or 82 samples each containing 12 fragments or DMSO by ^1H,^15N SOFAST-HMQC was 46 h (˜32 min/sample). […] All NMR data were processed using NMRPipe^4 in NMRbox.^5 Spectra were processed by using in-house automated Python scripts in NMRPipe,^4 and chemical shifts perturbation were analyzed using SPARKY.^6 Total ^1H/^15N chemical shift perturbations and equilibrium dissociation constants (Kd) were calculated as reported.^2

PBRM1-BD2 [2] = biological target: T1, PBRM1-BD2; test: AlphaScreen competition assay, His6-tagged PBRM1-BD2 and biotinylated H3K14ac peptide; type: binding; conditions: 0.2 μM His6-PBRM1-BD2, 0.1 μM biotinylated H3K14ac peptide
PBRM1-BD2 [3] = biological target: T1, PBRM1-BD2; test: biochemical; type: binding; conditions: for PBRM1-BD2 ΔTm: DSF, 10 μM protein, 100 μM inhibitor, vs apoprotein
Method: DSF measures protein unfolding by monitoring the fluorescence of the SYPRO Orange dye as a function of temperature; positive thermal shifts indicate ligand binding induced stabilization of the protein.
as §1

PBRM1-BD5 = PBRM1-BD5 (Homo sapiens (Human), UniProt Q86U86); conditions: DSF
PBRM1-BD5, sequence (Q86U86 653-763): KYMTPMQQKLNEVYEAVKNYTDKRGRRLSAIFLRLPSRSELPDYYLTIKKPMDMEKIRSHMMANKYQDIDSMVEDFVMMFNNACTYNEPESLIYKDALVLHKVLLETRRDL

RWPE-1 cells = test: Cell viability assay (CellTiter-Glo); type: cell-based, human; conditions: 10, 1 and 0.1 μM
Method: (§2) Cell Viability Assays. Cells were seeded in a 96-well plate and incubated for 12-24 h prior to initial treatment. The number of cells per well was chosen empirically based on cell growth rates (LNCaP-5,000 cells/well, PC3 and RWPE-1-3,000 cells per well, HEK293T-1,000 cells/well). Cells were treated with either DMSO control or serial dilutions of inhibitors and media with compound was refreshed every 48 h.

PC3 cells = test: Cell viability assay (CellTiter-Glo); type: cell-based, human; conditions: 10, 1 and 0.1 μM
Method: as §2

PBRM1-BD3 = PBRM1-BD3 (Homo sapiens (Human), UniProt Q86U86); test: DSF selectivity profiling; type: binding
PBRM1-BD3, sequence (Q86U86 381-487): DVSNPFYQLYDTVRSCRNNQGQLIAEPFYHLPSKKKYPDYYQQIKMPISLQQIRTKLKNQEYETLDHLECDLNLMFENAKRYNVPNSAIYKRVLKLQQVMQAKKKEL
Method: as §1

PBRM1-BD6 = PBRM1-BD6 (Homo sapiens (Human), UniProt Q86U86); test: DSF selectivity profiling; type: binding
PBRM1-BD6, sequence (Q86U86 769-879): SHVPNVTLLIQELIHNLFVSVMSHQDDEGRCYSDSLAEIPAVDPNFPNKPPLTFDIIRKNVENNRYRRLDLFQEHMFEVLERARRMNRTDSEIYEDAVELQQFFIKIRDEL
Method: as §1

PBRM1-BD1 = PBRM1-BD1 (Homo sapiens (Human), UniProt Q86U86); test: DSF selectivity profiling; type: binding
PBRM1-BD1, sequence (Q86U86 41-151): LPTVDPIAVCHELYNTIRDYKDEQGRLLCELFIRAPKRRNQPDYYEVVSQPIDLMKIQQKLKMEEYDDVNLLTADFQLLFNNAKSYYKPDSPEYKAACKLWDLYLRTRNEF
Method: as §1

PBRM1-BD4 = PBRM1-BD4 (Homo sapiens (Human), UniProt Q86U86); test: DSF selectivity profiling; type: binding
PBRM1-BD4, sequence (Q86U86 518-625): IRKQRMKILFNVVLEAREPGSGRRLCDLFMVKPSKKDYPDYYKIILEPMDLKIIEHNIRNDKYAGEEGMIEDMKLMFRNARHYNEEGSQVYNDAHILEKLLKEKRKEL
Method: as §1

SMARCA4 = SMARCA4 (Homo sapiens (Human), UniProt P51532); test: DSF selectivity profiling; type: binding
SMARCA4, sequence (P51532 1453-1564): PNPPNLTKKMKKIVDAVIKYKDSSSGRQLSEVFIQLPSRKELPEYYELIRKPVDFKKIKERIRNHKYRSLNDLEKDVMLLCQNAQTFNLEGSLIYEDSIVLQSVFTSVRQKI
Method: as §1

[4] = read-out: PBRM1-BD2 ΔTm, DSF, 10 μM protein, 100 μM inhibitor, vs apoprotein

SMILES | BRD4-BD1 ΔTm (BRD4-BD1) [°C] | BRD7 ΔTm (BRD7) [°C] | BRD2-BD2 ΔTm (BRD2-BD2) [°C] | BRD4-BD2 ΔTm (BRD4-BD2) [°C] | ASH1L ΔTm (ASH1L) | BRD3-BD1 ΔTm (BRD3-BD1) [°C] | p300 ΔTm (p300) [°C] | BRD3-BD2 ΔTm (BRD3-BD2) [°C] | PCAF ΔTm (PCAF) [°C] | CECR2 ΔTm (CECR2) [°C] | BRDT-BD1 ΔTm (BRDT-BD1) [°C] | SMARCA2 ΔTm (SMARCA2) [°C] | TRIM33A ΔTm (TRIM33A) [°C] | CREBBP ΔTm (CREBBP) [°C] | ΔTm at 100 µM (PBRM1-BD2 [3]; [4]) [°C] | further results
Cc1cccc(C)c1C1NC(=O)c2c(Cl)cccc2N1 (centres unmarked) [Compound 26, 5-Chloro-2-(2,6-dimethylphenyl)-2,3-dihydroquinazolin-4(1H)-one] | 0 | 0.1 | 0.5 | −4.4 | −0.8 °C | 0.0 | 0.2 | 0.3 | 0.6 | 1.3 | −0.6 | 0.5 | 0.5 | 0.2 | – | –
NC(=S)c1ccc(F)cc1 [Compound 6h] | – | – | – | – | – | – | – | – | – | – | – | – | – | – | – | Kd (PBRM1-BD2 [1]): > 2000 µM
O=C(O)c1ccc(Cl)c2c(=O)c3ccccc3[nH]c12 [Compound 38, 1-Chloro-9-oxo-9,10-dihydroacridine-4-carboxylic acid] | – | – | – | – | – | – | – | – | – | – | – | – | – | – | 0 | IC50 (PBRM1-BD2 [2]): > 250 µM
O=C(O)c1ccccc1Nc1cc(Cl)ccc1C(=O)O [Compound 37, 2-((2-Carboxyphenyl)amino)-4-chlorobenzoic acid] | – | – | – | – | – | – | – | – | – | – | – | – | – | – | – | IC50 (PBRM1-BD2 [2]): > 250 µM; ΔTm at 100 µM (PBRM1-BD2 [3]; read-out: PBRM1-BD2 ΔTm): 0.3 ± 0.02 °C
Cc1cccc(C2NC(=O)c3c(Br)cccc3N2)c1 (centres unmarked) [Compound 34, 5-Bromo-2-(3-methylphenyl)-2,3-dihydroquinazolin-4(1H)-one] | 0.3 | −0.4 | 0.5 | −1.1 | −0.4 °C | 0.4 | −0.1 | 0.5 | 0.6 | −0.6 | −0.4 | 0.3 | 0.1 | −0.2 | > 6.2 | PBRM1-BD5 ΔTm (PBRM1-BD5): ~1.5 °C; PBRM1-BD2 ΔTm (PBRM1-BD2 [3]): 6.4 °C and 6.4 ± 0.2 °C; growth inhibition of RWPE1 cells (RWPE-1 cells): do not inhibit the growth of PC3 and RWPE1 at tested concentrations; growth inhibition of PC3 cells (PC3 cells): do not inhibit the growth of PC3 and RWPE1 at tested concentrations; PBRM1-BD3 ΔTm (PBRM1-BD3): 0.6 °C; PBRM1-BD6 ΔTm (PBRM1-BD6): −2.4 °C; PBRM1-BD1 ΔTm (PBRM1-BD1): 1.4 °C; PBRM1-BD4 ΔTm (PBRM1-BD4): 0.2 °C; SMARCA4 ΔTm (SMARCA4): −0.2 °C
COc1cccc(OCC(F)(F)F)c1C#N [Compound 6i] | – | – | – | – | – | – | – | – | – | – | – | – | – | – | – | Kd (PBRM1-BD2 [1]): > 2000 µM
CCC(/C=C1\CCn2c1nc(=O)c1c(Cl)cccc12)CC [Compound 7, (E)-6-Chloro-3-(2-ethylbutylidene)-2,3-dihydropyrrolo[1,2-a]quinazolin-5(1H)-one, reference compound] | −0.2 | 0.4 | 0.6 | −1.1 | – | −0.3 | −0.5 | 0.4 | 0.4 | −0.9 | −0.8 | 3.0 | 0.3 | −0.7 | 7.7 | PBRM1-BD5 ΔTm (PBRM1-BD5): 11.0 °C; PBRM1-BD2 ΔTm (PBRM1-BD2 [3]): > 7.5 °C; growth inhibition of PC3 cells (PC3 cells): more significant inhibition of PBRM1-independent prostate cancer cell line PC3; PBRM1-BD3 ΔTm (PBRM1-BD3): 2.8 °C; PBRM1-BD6 ΔTm (PBRM1-BD6): −1.5 °C; PBRM1-BD1 ΔTm (PBRM1-BD1): −0.9 °C; PBRM1-BD4 ΔTm (PBRM1-BD4): 3.9 °C; SMARCA4 ΔTm (SMARCA4): 3.1 °C
CN(C)/C=C1\CCn2c1nc(=O)c1c(Cl)cccc12 [Compound 2, (E)-6-Chloro-3-((dimethylamino)methylene)-2,3-dihydropyrrolo[1,2-a]quinazolin-5(1H)-one, reference compound] | 0.1 | 1.2 | −0.2 | −0.6 | −0.7 °C | 0.1 | −0.6 | 0.5 | −0.2 | 2.0 | −0.1 | 2.2 | −0.9 | 0.1 | 3.3 ± 0.4 | PBRM1-BD5 ΔTm (PBRM1-BD5): 7.7 °C; PBRM1-BD3 ΔTm (PBRM1-BD3): 2.6 °C; PBRM1-BD6 ΔTm (PBRM1-BD6): −1.4 °C; PBRM1-BD1 ΔTm (PBRM1-BD1): −0.1 °C; PBRM1-BD4 ΔTm (PBRM1-BD4): 0.3 °C; SMARCA4 ΔTm (SMARCA4): 2 °C
CCC(/C=C1\CCn2c1nc(=O)c1ccccc12)CC [Compound 8, (E)-3-(2-Ethylbutylidene)-2,3-dihydropyrrolo[1,2-a]quinazolin-5(1H)-one, reference compound] | – | – | – | – | did not show binding | – | – | – | – | – | – | – | – | – | – | –
O=C1NC(c2c(F)cccc2Cl)Nc2cccc(Cl)c21 (centres unmarked) [Compound 11, 5-Chloro-2-(2-chloro-6-fluorophenyl)-2,3-dihydroquinazolin-4(1H)-one] | – | – | – | – | – | – | – | – | – | – | – | – | – | – | 4.4 ± 0.4 | –
COc1cccc2c1C(=O)NC(c1ccccc1C)N2 (centres unmarked) [Compound 31, 5-Methoxy-2-(2-methylphenyl)-2,3-dihydroquinazolin-4(1H)-one] | – | – | – | – | – | – | – | – | – | – | – | – | – | – | 0 | IC50 (PBRM1-BD2 [2]): > 70 µM
N#Cc1ncccc1N1CCCCC1 [Compound 6j] | – | – | – | – | – | – | – | – | – | – | – | – | – | – | – | Kd (PBRM1-BD2 [1]): > 2000 µM
